Data as given in publication PMC8515607 (ACS Omega, 2021).
Where two headings read alike, the source gives them in different places.

Tests used:
[1] = tested on: A549, MCF-7, and LoVo cells; experiment: Antiproliferative activity, values quoted jointly for three tumor lines; assay type: cell-based, human; details: Homo sapiens; summary of Table 1; read-out: IC50 against A549, MCF-7, and LoVo cells (span over the three lines)
Text: (§1) The A549 and MCF7 cell lines were purchased from the European Collection of Authenticated Cell Cultures (ECACC, Salisbury, U.K., 86012804 and 86012803). The LoVo cell line was purchased from the American Type Culture Collection (CCL-229, ATCC, Manassas, VA), and LoVo/DX by courtesy of Prof. E. Borowski (Technical University of Gdańsk, Gdańsk, Poland). The BALB/3T3 cell line was purchased from the American Type Culture Collection (CCL-163, ATCC, Manassas, VA). All of the cell lines are maintained in the Institute of Immunology and Experimental Therapy (IIET), Wroclaw, Poland.
(§2) A549 cells were cultured in a mixture of OptiMEM and Roswell Park Memorial Institute (RPMI) 1640 (1:1) medium (IIET, Wroclaw, Poland), supplemented with 10% fetal bovine serum HyClone (GE Healthcare) and 2 mM L-glutamine (Sigma-Aldrich, Germany). MCF7 cells were cultured in a mixture of Eagle’s medium (IIET, Wroclaw, Poland), supplemented with 10% fetal bovine serum, 2 mM L-glutamine, and insulin (Sigma-Aldrich, Germany). LoVo and LoVo/DX cells were cultured in F12K medium (Corning), supplemented with 10% fetal bovine serum HyClone (GE Healthcare) and 0.1 μg/mL doxorubicin (Accord) for LoVo/DX. BALB/3T3 fibroblasts were cultured in Dulbecco’s medium (Gibco), supplemented with 10% fetal bovine serum (GE Healthcare) and 2 mM L-glutamine (Sigma-Aldrich, Germany). All culture media contained antibiotics: 100 U/mL penicillin (Polfa-Tarchomin, Poland) and 0.1 mg/mL streptomycin (Sigma-Aldrich, Germany). All cell lines were cultured during entire experiment in humid atmosphere at 37 °C and 5% CO2.
(§3) All cell lines were exposed to each tested agent at different concentrations in the range 100–0.00001 μg/mL for 72 h. The cells were also exposed to the reference drug cisplatin (Teva Pharmaceuticals, Poland) and doxorubicin (Accord Healthcare Limited, U.K.). Additionally, all cell lines were exposed to dimethyl sulfoxide (DMSO) (solvent used for tested compounds) (POCh, Poland) at concentrations corresponding to those present in tested agents dilutions. After 72 h, sulforhodamine B (SRB) assay was performed.[57]
(§4) After 72 h of incubation with the tested compounds, the cells were fixed in situ by gently adding cold 50% trichloroacetic acid (TCA) (POCh, Poland) and were incubated at room temperature for 1 h. Then, the wells were washed four times with water and air-dried. Next, 0.1% solution of sulforhodamine B (Sigma-Aldrich, Germany) in 1% acetic acid (POCh, Poland) was added to each well and the plates were incubated at room temperature for 0.5 h. After incubation time, unbound dye was removed by washing plates four times with 1% acetic acid, whereas stain bound to cells was solubilized with 10 mM Tris base (Sigma-Aldrich, Germany). Absorbance of each solution was read at Synergy H4 Hybrid Multi-Mode Microplate Reader (BioTek Instruments) at the 540 nm wavelength.
(§5) IC50 values were calculated in Excel sheet using formulas adapted by Mateusz Psurski fromCheburator 0.4, Dmitry Nevozhay software (version 1.2.0 software by Dmitry Nevozhay, 2004–2014, http://www.cheburator.nevozhay.com, freely available) for each experiment.[58] Compounds at each concentration were tested in triplicate in a single experiment, and each experiment was repeated at least three times independently.

BALB/3T3 = experiment: In vitro antiproliferative activity, SRB assay, normal fibroblasts BALB/3T3; assay type: cell-based; details: Mus musculus, BALB/3T3, normal murine embryonic fibroblasts, 72 h, mean ± SD
Text: as §1, §2, §3, §4, §5

LoVo/DX = experiment: cells; assay type: cell-based, human; details: for LoVo/DX RI: resistance index = IC50 LoVo/DX / IC50 LoVo; for LoVo/DX SI: selectivity index = IC50 BALB/3T3 / IC50 LoVo/DX
Text: as §1, §2, §3, §4, §5

MCF-7 = experiment: cells; assay type: cell-based, human; details: for IC50: Homo sapiens, MCF7, 72 h, read-out: MCF-7 IC50 (nM); for MCF-7 SI: selectivity index = IC50 BALB/3T3 / IC50 MCF-7
Text: as §1, §2, §3, §4, §5

A549 = experiment: cells; assay type: cell-based, human; details: for IC50: Homo sapiens, A549, 72 h, read-out: A549 IC50 (nM), 72 h exposure, SRB, mean ± SD; for A549 SI: selectivity index = IC50 BALB/3T3 / IC50 A549
Text: as §1, §2, §3, §4, §5

LoVo = experiment: cells; assay type: cell-based, human; details: for IC50: Homo sapiens, LoVo, 72 h, read-out: LoVo IC50 (nM); for LoVo SI: selectivity index = IC50 BALB/3T3 / IC50 LoVo
Text: as §1, §2, §3, §4, §5

[2] = Homo sapiens, LoVo/DX, 72 h, read-out: LoVo/DX IC50 (nM), 72 h exposure, SRB, mean ± SD

CNc1ccc2c(cc1=O)[C@@H](n1cc(C(=O)OCc3ccc(F)cc3)nn1)CCc1cc(OC)c(OC)c(OC)c1-2 [Compound 21]
IC50 [1]: 10 to 25 nM
IC50 (BALB/3T3): 25 ± 5.6 nM
IC50 (LoVo/DX; [2]): 530 ± 110 nM
LoVo/DX RI (LoVo/DX): 25
LoVo/DX SI (LoVo/DX): 0.1
IC50 (MCF-7): 21 ± 8 nM
MCF-7 SI (MCF-7): 1.2
IC50 (A549): 21 ± 7.7 nM
A549 SI (A549): 1.2
IC50 (LoVo): 21 ± 6.4 nM
LoVo SI (LoVo): 1.2

CNc1ccc2c(cc1=O)[C@@H](n1cc(C(=O)OC)nn1)CCc1cc(OC)c(OC)c(OC)c1-2 [Compound 18]
IC50 [1]: 10 to 25 nM
IC50 (BALB/3T3): 20 ± 13 nM
IC50 (LoVo/DX; [2]): 280 ± 77 nM
LoVo/DX RI (LoVo/DX): 23
LoVo/DX SI (LoVo/DX): 0.1
IC50 (MCF-7): 12 ± 2.7 nM
MCF-7 SI (MCF-7): 1.7
IC50 (A549): 13 ± 2.3 nM
A549 SI (A549): 1.5
IC50 (LoVo): 12 ± 4.3 nM
LoVo SI (LoVo): 1.7

CNc1ccc2c(cc1=O)[C@@H](n1cc(CCl)nn1)CCc1cc(OC)c(OC)c(OC)c1-2 [Compound 10]
IC50 (BALB/3T3): 13 ± 3 nM
IC50 (LoVo/DX; [2]): 95 ± 24 nM
LoVo/DX RI (LoVo/DX): 7.9
LoVo/DX SI (LoVo/DX): 0.1
IC50 (MCF-7): 8.6 ± 3.2 nM
MCF-7 SI (MCF-7): 1.5
IC50 (A549): 13 ± 3.3 nM
A549 SI (A549): 1.0
IC50 (LoVo): 12 ± 2.4 nM
LoVo SI (LoVo): 1.1

CCOC(=O)c1nnn([C@H]2CCc3cc(OC)c(OC)c(OC)c3-c3ccc(NC)c(=O)cc32)c1C(=O)OCC [Compound 22]
IC50 [1]: 70 to 100 nM
IC50 (LoVo/DX; [2]): 580 ± 120 nM
LoVo/DX RI (LoVo/DX): 6.0
LoVo/DX SI (LoVo/DX): 0.2
IC50 (MCF-7): 93 ± 43 nM
MCF-7 SI (MCF-7): 1.2
IC50 (A549): 72 ± 27 nM
A549 SI (A549): 1.5
IC50 (LoVo): 97 ± 24 nM
LoVo SI (LoVo): 1.1

CNc1ccc2c(cc1=O)[C@@H](n1cc(COC(=O)CCNC(=O)OC(C)(C)C)nn1)CCc1cc(OC)c(OC)c(OC)c1-2 [Compound 26]
IC50 (BALB/3T3): 6.4 ± 1.4 nM
IC50 (LoVo/DX; [2]): 700 ± 120 nM
LoVo/DX RI (LoVo/DX): 240
LoVo/DX SI (LoVo/DX): <0.1
IC50 (MCF-7): 1.1 ± 0.1 nM
MCF-7 SI (MCF-7): 5.8
IC50 (A549): 2.4 ± 0.7 nM
A549 SI (A549): 2.7
IC50 (LoVo): 2.9 ± 1.2 nM
LoVo SI (LoVo): 2.2

CNc1ccc2c(cc1=O)[C@@H](n1cc(CNC(=O)OC)nn1)CCc1cc(OC)c(OC)c(OC)c1-2 [Compound 37]
IC50 (BALB/3T3): 14 ± 2.4 nM
IC50 (LoVo/DX; [2]): 1500 ± 240 nM
LoVo/DX RI (LoVo/DX): 180
LoVo/DX SI (LoVo/DX): <0.1
IC50 (MCF-7): 4.7 ± 0.5 nM
MCF-7 SI (MCF-7): 3.0
IC50 (A549): 7.2 ± 0.7 nM
A549 SI (A549): 1.9
IC50 (LoVo): 8.5 ± 2.3 nM
LoVo SI (LoVo): 1.6

CNc1ccc2c(cc1=O)[C@@H](n1cc(COCc3ccccc3)nn1)CCc1cc(OC)c(OC)c(OC)c1-2 [Compound 17]
IC50 (BALB/3T3): 11 ± 7.8 nM
IC50 (LoVo/DX; [2]): 84 ± 42 nM
LoVo/DX RI (LoVo/DX): 15
LoVo/DX SI (LoVo/DX): 0.1
IC50 (MCF-7): 6.1 ± 4.8 nM
MCF-7 SI (MCF-7): 1.8
IC50 (A549): 6.9 ± 5.3 nM
A549 SI (A549): 1.6
IC50 (LoVo): 5.7 ± 4.9 nM
LoVo SI (LoVo): 1.9

CNc1ccc2c(cc1=O)[C@@H](n1cc(COC(=O)c3ccccc3Cl)nn1)CCc1cc(OC)c(OC)c(OC)c1-2 [Compound 27]
IC50 (BALB/3T3): 8.7 ± 2 nM
IC50 (LoVo/DX; [2]): < 100 nM
IC50 (LoVo/DX; read-out: LoVo/DX IC50, 72 h exposure, SRB, mean ± SD): 89 ± 18 nM
LoVo/DX RI (LoVo/DX): 19
LoVo/DX SI (LoVo/DX): 0.1
IC50 (MCF-7): 2.4 ± 0.8 nM
MCF-7 SI (MCF-7): 3.6
IC50 (A549): 2.9 ± 0.6 nM
A549 SI (A549): 3.0
IC50 (LoVo): 4.7 ± 1.7 nM
LoVo SI (LoVo): 1.9
